Publication PMC8761912, “Cryptosporidium parvum Pyruvate Kinase Inhibitors With in vivo Anti-cryptosporidial Efficacy” (Frontiers in Microbiology, 2022)
Read-outs that look alike come from different tables or passages of the source. Marks after values point to notes of the source that are not given here.

Legend:
[1] = ref https://pubchem.ncbi.nlm.nih.gov, cited from earlier work; for Polar surface area: topological
[2] = In vitro compound cytotoxicity assay (WST-1); format: cell-based; settings: human, uninfected HCT-8 cells
Description: Compounds were tested for cytotoxicity in human ileocecal colorectal adenocarcinoma cells [HCT-8 (HRT-18); ATCC® CCL-244™, CVCL_2478] by using the cell proliferation reagent WST-1 (Roche) according to the manufacturer’s protocol. The WST-1 assay is a quantitative colorimetric assay for measurement of metabolically active cells. This assay is based on the reduction of the tetrazolium salt (WST-1) by viable cells. About 5 × 10^4 HCT-8 cells were seeded per well in 96-well plates and grown overnight in 200 μl of RPMI-1640 medium (without phenol red) (Gibco) supplemented with 2.5 g/L of glucose, 1 mM sodium pyruvate, 1.5 g/L of sodium bicarbonate, 10% heat-inactivated FBS (Gibco), and 1 × Antibiotic-Antimycotic (Gibco) at 37°C with 5% CO2 in a humidified incubator. Upon reaching 80–90% confluency, cells were treated with the chemical compounds reconstituted in DMSO for 24 h. The volume of DMSO was kept below 1% of the total culture volume in all the wells to avoid DMSO cytotoxicity. Control wells received equivalent volumes of DMSO used in the reconstituted compounds. After 24 h of culture, 10 μl of the WST-1 reagent was added to each well, and the plates were incubated for 1 h at 37°C with 5% CO2 under dark conditions. The plates were shaken thoroughly and 150 μl of the medium from each well was transferred to a new clear flat-bottom black 96-well plate (Corning). Absorbance was read at a test wavelength of 440 nm and a reference wavelength of 690 nm using a multi-mode microplate reader (Spectra Max iD3; Molecular Devices, United States). The mean percent toxicity (MPT) of each compound was derived by dividing the difference in absorbance (OD) between the compound-treated cells and the DMSO-treated cells by the absorbance from the DMSO-treated cells and multiplying the product by 100:
(2) MPT=[(MeanODDMSO-treated-MeanODCompound-treated)÷MeanODDMSO-treated]×100.
The half maximal cytotoxic concentration (CC50) values were determined by using non-linear regression analysis in GraphPad PRISM® v8. Assays were performed in triplicate and repeated three times.

C. parvum = experiment: In vitro anti-Cryptosporidium activity in infected HCT-8 cells (immunofluorescence assay); format: cell-based, Cryptosporidium parvum; settings: for effect on in vitro proliferation and viability of C. parvum: 25 μM, added immediately after infection, 48 h of culture, vs untreated parasites; for EC50: Cryptosporidium parvum; for effect on proliferation of intracellular C. parvum in HCT-8 cells: varying concentrations, 0 h or 2 h PI, analysed 48 h PI, vs infected cultures without compound
Description: Once confluent, the cells were infected with 10^5 freshly excysted C. parvum sporozoites per well, immediately followed by the addition of anti-CpPyK compounds (reconstituted in DMSO) to one set of wells. Control infected cells were treated with DMSO volumes equivalent to those used for the compound-treated cultures. Paromomycin reconstituted in distilled sterile water, served as a positive control at a concentration of 200 μM. […] Briefly, the medium was removed from the culture wells, and the cells were washed two times with PBS before fixation with pre-chilled methanol-acetic acid (9:1) for 5 min at room temperature. Residual fixative was removed by rinsing the wells with PBS. Cells were rehydrated and permeabilized by washing twice with a buffer containing 0.1% Triton X-100, 0.35 M NaCl, and 0.13 M Tris-base, pH 7.6. Normal goat serum (5% in PBS) was used as a blocking agent, and the cell monolayer was stained with a fluorescein-labeled anti-C. parvum polyclonal antibody (Sporo-Glo™; Waterborne, Inc.) overnight at 4°C. The stained cells were washed twice with PBS followed by the addition of 200 μl water to each well. Plates were then imaged with an inverted fluorescence microscope using a 20× objective. The fluorescence generated by intracellular C. parvum parasites was quantified from nine microscopic fields per well of a 96-well plate using the batch process function in ImageJ version v1.50 (NIH, United States) after setting a threshold for the detection of parasites. Control wells with uninfected monolayers were included for background subtraction. Experiments were performed in triplicate and repeated at least three times.
One set of wells with confluent HCT-8 cells received CpPyK inhibitors immediately after C. parvum infection, while the same compounds were added to the other set of wells 2 h post-infection (PI). Control infected cells were treated with varying volumes of DMSO equivalent to the ones used for the compound-treated cultures. Cell monolayers were processed for immunofluorescence analysis after 48 h of incubation as described above. Samples were run in triplicate and three independent assays were performed. EC50 values were calculated using non-linear regression analysis of the mean dose-response curve data in GraphPad PRISM® v8.

[3] = Physicochemical properties adapted from PubChem; settings: based on Supplementary Table 2 properties
Excerpt: Supplementary Table S2. Physicochemical properties of identified CpPyK inhibitors (Adapted from: https://pubchem.ncbi.nlm.nih.gov).
NSC Molecular Molecular Number of Number of Number of Polar number IUPAC name formula weight cLog(p) Hydrogen bond Hydrogen bond rotatable surface donors acceptors bonds area (Å²) […]

[4] = molecular target: recombinant CpPyK (rCpPyK) protein (Cryptosporidium parvum, UniProt Q5CSM7); experiment: rCpPyK enzymatic activity inhibition assay (ATP detection, Cell Titer-Glo luminescence); format: biochemical
Description: (§1) The in vitro enzymatic activity of the rCpPyK protein was determined by quantitating the amount of ATP produced by the transfer of a phosphate group from phosphoenolpyruvate to adenosine diphosphate (ADP) in the presence of varying concentrations of the recombinant protein (Figure 1A). A typical assay contained 0.5 mM phosphoenolpyruvate, 0.6 mM ADP, 50 mM Tris buffer pH 7.5, 60 mM MgSO4, 100 mM KCl, and varying concentrations of rCpPyK incubated for 3 h at room temperature. The ATP generated was detected in a reaction volume of 50 μl in white opaque-walled 96 well plates by the luciferase-based Cell Titer-Glo 2.0 reagent (Promega) following the manufacturer’s instructions. The enzyme kinetics of rCpPyK were determined by using varying phosphoenolpyruvate (0–8 mM) and ADP (0–2 mM) concentrations in an enzymatic reaction catalyzed by a fixed concentration of the recombinant protein (6 ng/μl). In all assays, reaction mixtures without rCpPyK were included as negative controls. Three independent assays were performed for each experiment, and samples were run in triplicate. The luminescence generated was recorded using a multi-mode microplate reader (Spectra Max iD3; Molecular Devices, United States). GraphPad PRISM® v8 software was used to fit the Michaelis–Menten model directly to the substrate-velocity data to determine the enzymatic kinetic parameters for rCpPyK.
The Diversity Set VI chemical library (Supplementary Table 1) was obtained from the National Cancer Institute (NCI)/Developmental Therapeutics Program (DTP) Open Repository collection of chemical compounds.^1 Compounds were individually reconstituted in molecular biology grade dimethyl sulfoxide (DMSO) from Sigma-Aldrich and stored at −20°C. From the library, 1,424 compounds were screened in 96-well plates using the rCpPyK catalyzed enzyme assay to identify potential CpPyK inhibitors. The reactions were performed in 50 μl reaction volume containing 0.5 mM phosphoenolpyruvate, 0.6 mM ADP, 50 mM Tris buffer pH 7.5, 60 mM MgSO4, 100 mM KCl, and 6 ng/μl of rCpPyK protein with or without compound. The concentration of DMSO in all reaction mixtures was 1% (v/v). Control reactions without rCpPyK protein were included for background subtraction. Following 3 h of incubation at room temperature, an equal volume of the Cell Titer-Glo 2.0 reagent was added to each well, and the luminescence produced was recorded as relative luminescence units (RLU) after 10 min of incubation using a multi-mode microplate reader (Spectra Max iD3; Molecular Devices, United States). The mean percent inhibition (MPI) of rCpPyK activity by each compound was derived by dividing the difference in luminescence (RLU) between the compound-treated wells and the DMSO-treated wells by the luminescence of the DMSO-treated wells and multiplying the product by 100:
(1) MPI=[(MeanRLUDMSO-treated-MeanRLUCompound-treated)÷MeanRLUDMSO-treated]×100.
Half maximal inhibitory concentration (IC50) values were determined by applying a non-linear regression analysis curve fit to the mean dose-response data for varying concentrations of each compound using GraphPad PRISM® v8. Reactions were performed in triplicate and repeated at least thrice.

Solubility = format: physicochemical; settings: solvent not stated
rCpPyK = molecular target: T1, rCpPyK (Cryptosporidium parvum, UniProt Q5CSM7); settings: previously reported for CpPyK; ref Denton et al. (1996); cited from earlier work
T1 sequence (Q5CSM7 7-532): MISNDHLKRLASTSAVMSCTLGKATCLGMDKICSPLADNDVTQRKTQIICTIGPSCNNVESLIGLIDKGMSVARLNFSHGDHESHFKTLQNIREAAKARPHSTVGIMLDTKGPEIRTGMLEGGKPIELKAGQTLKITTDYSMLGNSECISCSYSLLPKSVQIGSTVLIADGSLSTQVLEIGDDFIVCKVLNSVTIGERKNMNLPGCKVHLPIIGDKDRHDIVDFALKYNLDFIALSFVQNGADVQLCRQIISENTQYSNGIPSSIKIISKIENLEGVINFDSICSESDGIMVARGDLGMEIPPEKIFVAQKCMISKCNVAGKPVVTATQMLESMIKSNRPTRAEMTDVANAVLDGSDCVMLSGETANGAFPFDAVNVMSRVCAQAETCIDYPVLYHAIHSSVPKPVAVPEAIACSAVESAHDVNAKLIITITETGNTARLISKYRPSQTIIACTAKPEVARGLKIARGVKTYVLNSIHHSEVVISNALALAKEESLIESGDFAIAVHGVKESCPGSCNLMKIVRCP

[5] = substrate: Nc1ncnc2c1ncn2[C@@H]1O[C@H](COP(=O)(O)OP(=O)(O)O)[C@@H](O)[C@H]1O; experiment: rCpPyK enzyme kinetics on substrates (Michaelis–Menten); format: biochemical, Cryptosporidium parvum; settings: other: 6 ng/μl rCpPyK, varying substrate; pH 7.5
Description: as §1

[6] = substrate: C=C(OP(=O)(O)O)C(=O)O; experiment: as above; format: biochemical, Cryptosporidium parvum; settings: other: 6 ng/μl rCpPyK, varying substrate; pH 7.5
Description: as §1

[7] = HCT-8, read-out: Anti-C. parvum EC50, 0 h PI
[8] = HCT-8, read-out: Anti-C. parvum EC50, 2 h PI

In the case of CN(C)c1ccc(/C=C/C(=O)c2cc(Cl)ccc2O)cc1 [NSC11437, (E)-1-(5-chloro-2-hydroxyphenyl)-3-[4-(dimethylamino)phenyl]prop-2-en-1-one], the “Number of Hydrogen bond acceptors” value [1] is given as 3, the “Number of Hydrogen bond donors” value [1] is given as 1 and the Polar surface area [1] is given as 40.5 Å². For the same molecule, the CC50 at 24 h [2] was 612 µM, the “effect on in vitro proliferation and viability of C. parvum” value (C. parvum) was “significant inhibitory effect” and the EC50 (C. parvum; [7]) was 23.8 µM. For the same molecule, the EC50 (C. parvum; [8]) was 27.3 µM, the “effect on proliferation of intracellular C. parvum in HCT-8 cells” value (C. parvum) was “significant (P < 0.05) concentration-dependent inhibitory effect” and the “conformity to Lipinski's and Veber's rules for drug-likeness” value [3] was “conform”. For the same molecule, the IC50 [4] was 156 µM and the solubility (Solubility) was “low solubility”.

In the case of COc1cccc(/C=C2\CCc3ccccc3C2=O)c1 [NSC636718, (2E)-2-[(3-methoxyphenyl)methylidene]-3,4-dihydronaphthalen-1-one], the “Number of Hydrogen bond acceptors” value [1] is listed as 2, the “Number of Hydrogen bond donors” value [1] is listed as 0 and the Polar surface area [1] is listed as 26.3 Å². The CC50 at 24 h [2] was 106 µM, the “effect on in vitro proliferation and viability of C. parvum” value (C. parvum) was “significant inhibitory effect” and the EC50 (C. parvum; [7]) was 33.8 µM. For the same molecule, the EC50 (C. parvum; [8]) was 33.6 µM, the “Selectivity index (CC50/EC50)” value (C. parvum; HCT-8 CC50 / anti-C. parvum EC50) was 3.15 and the “effect on proliferation of intracellular C. parvum in HCT-8 cells” value (C. parvum) was “significant (P < 0.05) concentration-dependent inhibitory effect”. For the same molecule, the “conformity to Lipinski's and Veber's rules for drug-likeness” value [3] was “conform” and the IC50 ([4]; 6 ng/μl rCpPyK, 3 h at room temperature, read-out: Enzyme inhibition IC50) was 117 µM.

For C=C(OP(=O)(O)O)C(=O)O [Phosphoenolpyruvate, phosphoenolpyruvate], the Km (rCpPyK) is given as 320 µM and the Vmax (rCpPyK) is given as 6.82 nmol/µg/min.

B1: rCpPyK (Cryptosporidium parvum Iowa II) (protein)
chain: T1 sequence (Q5CSM7 7-532)
For B1, the Km [5] was 40 µM, the Vmax [5] was 4.64 µmol/min/mg and the Km [6] was 1.29 (0.32^a) mM. For the same molecule, the Vmax [6] was 12.1 µmol/min/mg.
